pIC50: −log10 of the molar value. Read-outs that look alike come from different tables or passages of the source.

Common to all, as to type: cell-based, human
For assay [1], the system named is A549 cells (KRAS G12S mutant). Put plainly: Cell proliferation inhibition experiment, 3D spheroid, CellTiter-Glo, A549. The note with it: A549 (KRAS G12S mutant) 3D spheroid, 5 days with compound, CellTiter-Glo, read-out: A549 IC50. From the text:
Raw materials and instruments: NCI-H358 purchased from ATCC; article number: CRL-5807; batch number: 70010825; A549 purchased from ATCC; article number: CCL-185; batch number: 70007820; RPMI1640 purchased from Gibco; article number: 11875-093; batch number: 2152748; F-12K purchased from Gibco; article number: 21127-022; batch number: 2185853; FBS purchased from Gibco; article number: 10099-141; batch number: 2109290CP; PS purchased from Gibco; article number: 15140-122; batch number: 2145451; Trypsin-EDTApurchased from Gibco; article number: 25200-072; batch number: 2085552; CellTiter Glo working solution purchased from Promega; article number: G9683; batch number: 398478; DMSO purchased from VWR AMRESCO; article number: 0231-500ML; batch number: 18C0656168; 384-well spheroid plate purchased from Corning; article number: 3830; batch number: 27519032; white opaque 384-well plate purchased from Corning; article number: 3570; batch number: 26819023; microplate reader purchased from PerkinElmer; model: Envision MLD2105-0020; equipment number 1050369.
NCI-H358 is a KRAS G12C mutant human non-small cell lung cancer cell line, cultured in 10% FBS RPMI-1640+1% PS culture medium; and A549 is a KRAS G12S mutant human lung adenocarcinoma cell line, cultured in 10% FBS F-12K+1% PS culture medium. Cells at logarithmic growth stage were taken, digested with trypsin-EDTA, then collected and counted. H358 was adjusted to 1.8 E4 cells/mL with 2% FBS RPMI-1640 culture medium, and A549 was adjusted to 8.9 E3 cells/mL with 2% FBS F-12K culture medium; 800 (45 μL) H358 or 400 (45 μL) A549 were inoculated respectively in a 384-well spheroid plate and cultured overnight to establish a 3D cell model. A 3.16-fold gradient concentration stock solution of 1000× compound was prepared with DMSO, and diluted 100-fold to 10× compound stock solution with 2% FBS culture medium. On the second day after cell inoculation, 5 μL of 10× compound stock solution was added to each cell culture well, with a final concentration of 1× and a DMSO content of 0.1%. DMSO was used as experimental control (control), and 2% FBS culture medium was used as blank control (blank). After 5 days of compound cell culture, 25 μL of CellTiter-Glo working solution was added to each well, mixed well at 400 rpm and incubated for 30 minutes. After standing at room temperature for 30 minutes, 40 μL of the mixed solution was transferred to a white opaque 384-well plate, and the luminescence chemiluminescence value was read with a microplate reader. The cell proliferation inhibition rate IR (%)=(RLU control -RLU compound)/(RLU control -RLU blank) x100% was calculated. The gradient dilution concentration of the compound and the corresponding cell proliferation inhibition rate were fitted by Prism 6 four-parameter method, and the IC50 value was calculated. The inhibitory activity of the compounds prepared in the above embodiments of the present disclosure on KRAS G12C mutant NCI-H358 cells was 0.0001 μM to 0.5 μM; the inhibitory activity of some compounds on KRAS G12C mutant NCI-H358 cells was 0.001 μM to 0.1 μM or 0.001 μM to 0.05 μM.
A general note: Cellular ATP, detected with luciferase, serves as a proxy for viable cell number.

The subject of assay [2] is KRAS G12C mutant MIA PaCa-2 cells. Put plainly: Cell proliferation inhibition experiment, 3D spheroid, CellTiter-Glo, MIA PaCa-2. The note with it: 3D cell model in 384-well spheroid plate, 5 days, CellTiter-Glo, read-out: MIA-PaCa2 IC50. From the text: Raw materials and instruments: MIA PaCa-2 purchased from ATCC; article number: CRL-1420; batch number: 63143594; DMEM purchased from Gibco; article number: 11995-065; batch number: 2186878; FBS purchased from Gibco; article number: 10099-141; batch number: 2109290CP; Horse Serum purchased from Gibco; article number: 16050-122; batch number: 1818976; PS purchased from Gibco; article number: 15140-122; batch number: 2145451; Trypsin-EDTA purchased from Gibco; article number: 25200-072; batch number: 2085552; CellTiter Glo working solution purchased from Promega; article number: G9683; batch number 398478; DMSO purchased from VWR AMRESCO; article number: 0231-500ML; batch number: 18C0656168; 384-well spheroid plate purchased from Corning; article number: 3830; batch number: 27519032; white opaque 384-well plate purchased from Corning; article number: 3570; batch number: 26819023; microplate reader purchased from PerkinElmer; model: Envision MLD2105-0020; equipment number 1050369.
MIA PaCa-2 is a KRAS G12C mutant human pancreatic cancer cell line, cultured in 10% FBS+2.5% Horse Serum DMEM+1% PS culture medium; cells at logarithmic growth stage were taken, digested with trypsin-EDTA, then collected and counted, and 200 MIA PaCa-2 were inoculated in a 384-well spheroid plate, respectively, and cultured overnight to establish a 3D cell model. A 3.16-fold gradient concentration stock solution of 1000× compound was prepared with DMSO, and diluted 100-fold to 10× compound stock solution with culture medium. On the second day after cell inoculation, 10× compound stock solution was added to each cell culture well, with a final concentration of 1× and a DMSO content of 0.1%. DMSO was used as experimental control (control), and culture medium was used as blank control (blank). After 5 days of compound cell culture, 30 μL of CellTiter-Glo working solution was added to each well, mixed well and incubated for 30 minutes. After standing at room temperature for 30 minutes, 40 μL of the mixed solution was transferred to a white opaque 384-well plate, and the luminescence chemiluminescence value was read with a microplate reader. The cell proliferation inhibition rate IR (%)=(RLU control -RLU compound)/(RLU control−RLU blank)×100% was calculated. The gradient dilution concentration of the compound and the corresponding cell proliferation inhibition rate were fitted by XLFit four-parameter method, and the IC50 value was calculated. The inhibitory activity of the compounds prepared in the above embodiments of the present disclosure on KRAS G12C mutant MIA PaCa-2 cells was 0.0001 μM to 0.5 μM; the inhibitory activity of some compounds on KRAS G12C mutant MIA PaCa-2 cells was 0.001 μM to 0.1 μM or 0.001 μM to 0.05 μM.

The subject of assay [3] is KRAS G12C mutant NCI-H358 cells. Nature of the assay: Cell proliferation inhibition experiment, 3D spheroid, CellTiter-Glo, NCI-H358. Conditions: NCI-H358 (KRAS G12C mutant) 3D spheroid, 5 days with compound, CellTiter-Glo, read-out: H358 IC50. In short, it runs like this:
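Cells seeded in 2% FBS medium in spheroid plates (800 H358 or 400 A549 per well), grown overnight to form 3D spheroids, then exposed to 3.16-fold compound dilutions (0.1% DMSO) for 5 days. CellTiter-Glo luminescence gave inhibition vs DMSO and medium blanks; IC50 by four-parameter fit.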

[4] abbreviates: Homo sapiens, MIA PaCa-2, 120 h.

As to `C=CC(=O)N1CCN2C(=O)c3c(N4CCC5(CCC5)C4)nc(-c4c(O)cccc4F)c(Cl)c3OC[C@H]2C1` [Z35, (6aR)-8-actyloyl-4-chloro-3-(2-fluoro-6-hydroxyphenyl)-1-(6-azaspiro[3.4]octan-6-yl)-6,6a,7,8,9,10-hexahydro-12H-pyrazino[2,1-c]pyrido[3,4-f][1,4]oxazepin-12-one], the figures for the pIC50 in assay [1], in assay [2] and in assay [3] were under 5.30, 7.44 and 7.68, respectively.
Take `C=CC(=O)N1CCN2C(=O)c3c(O[C@@H]4CCN(C)C4)nc(-c4c(O)cccc4F)c(Cl)c3OC[C@H]2C1` [Z64, (6aR)-8-acryloyl-4-chloro-3-(2-fluoro-6-hydroxyphenyl)-1-(((R)-1-methylpyrrolidin-3-yl)oxy)-6,6a,7,8,9,10-hexahydro-12H-pyrazino[2,1-c]pyrido[3,4-f][1,4]oxazepin-12-one]: the negative-log IC50 (pIC50) in assay [1] (Homo sapiens, A549, 120 h) was under 4.52; in assay [2] (setting [4]), 6.57; in assay [3] (Homo sapiens, NCI-H358, 120 h), 6.54.
As to `C=CC(=O)N1CCN2C(=O)c3c(N4CCOC[C@@H]4CC)nc(-c4c(O)cccc4F)c(Cl)c3OC[C@H]2C1` [Z52, (6aR)-8-acryloyl-4-chloro-1-((S)-3-ethylmorpholino)-3-(2-fluoro-6-hydroxyphenyl)-6,6a,7,8,9,10-hexahydro-12H-pyrazino[2,1-c]pyrido[3,4-f][1,4]oxazepin-12-one], the pIC50 in assay [1] (Homo sapiens, A549, 120 h) was under 5.30; in assay [2] (setting [4]) it was 7.41; in assay [3] (Homo sapiens, NCI-H358, 120 h), 7.44.
Taken in the same sequence, the figures for `C=CC(=O)N1CCN2C(=O)c3c(N4CCOCC4)nc(-c4c(O)cccc4F)c(Cl)c3OC[C@H]2C1` [Z10, (6aR)-8-acryloyl-4-chloro-3-(2-fluoro-6-hydroxyphenyl)-1-morpholino-6,6a,7,8,9,10-hexahydro-12H-pyrazino[2,1-c]pyrido[3,4-f][1,4]oxazepin-12-one] were under 4.70, 7.17 and 7.41.
Taken in the same sequence, the figures for `C=CC(=O)N1CCN2C(=O)c3c(N4CCC5(CCCC5)C4)nc(-c4c(O)cccc4F)c(Cl)c3OC[C@H]2C1` [Z34, (6aR)-8-acryloyl-4-chloro-3-(2-fluoro-6-hydroxyphenyl)-1-(2-azaspiro[4.4]nonan-2-yl)-6,6a,7,8,9,10-hexahydro-12H-pyrazino[2,1-c]pyrido[3,4-f][1,4]oxazepin-12-one] were 5.31, 7.09 and 7.49.
The matching figures for `C=CC(=O)N1CCN2C(=O)c3c(OCC4CCN(C)CC4)nc(-c4c(O)cccc4F)c(Cl)c3OC[C@H]2C1` [Z40, (6aR)-8-acryloyl-1-((1-methylpiperidin-4-yl)methoxy)-4-chloro-3-(2-fluoro-6-hydroxyphenyl)-6,6a,7,8,9,10-hexahydro-12H-pyrazino[2,1-c]pyrido[3,4-f][1,4]oxazepin-12-one]: under 4.52, 7.24 and 7.04.
Turning to `C=CC(=O)N1CCN2C(=O)c3c(-c4c(F)cccc4OC)nc(-c4c(O)cccc4F)c(Cl)c3OC[C@H]2C1` [Z55, (6aR)-8-acryloyl-4-chloro-3-(2-fluoro-6-hydroxyphenyl)-1-(2-fluoro-6-methoxyphenyl)-6,6a,7,8,9,10-hexahydro-12H-pyrazino[2,1-c]pyrido[3,4-f]oxazepin-12-one], the negative-log IC50 (pIC50) is under 6.00 in assay [1], 6.44 in assay [2] and 6.87 in assay [3].
In the case of `C=CC(=O)N1CCN2Cc3c(Nc4c(C)ccnc4C(C)C)nc(-c4c(O)cccc4F)c(Cl)c3OC[C@H]2C1` [Z19, 1-((6aR)-4-chloro-3-(2-fluoro-6-hydroxyphenyl)-1-((2-isopropyl-4-methylpyridin-3-yl)amino)-6a,7,9,10-tetrahydro-12H-pyrazino[2,1-c]pyrido[3,4-f][1,4]oxazepin-8(6H)-yl)prop-2-en-1-one], the pIC50 in assay [1] (Homo sapiens, A549, 120 h) is under 4.52; in assay [2] (setting [4]), 7.20; in assay [3] (Homo sapiens, NCI-H358, 120 h) it was 7.46.
The matching figures for `C=CC(=O)N1CCN2C(=O)c3c(N4CC5CN(C)CC5C4)nc(-c4c(O)cccc4F)c(Cl)c3OC[C@H]2C1` (stereo partly drawn) [Z60, (6aR)-8-acryloyl-4-chloro-3-(2-fluoro-6-hydroxyphenyl)-1-(5-methylhexahydropyrrolo[3,4-c]pyrrol-2 (1H)-yl)-6,6a,7,8,9,10-hexahydro-12H-pyrazino[2,1-c]pyrido[3,4-f][1,4]oxazepin-12-one]: under 4.52, 7.03 and 6.90.
The matching figures for `C=CC(=O)N1CCN2C(=O)c3c(N4CCO[C@@H](C)C4)nc(-c4c(O)cccc4F)c(Cl)c3OC[C@H]2C1` [Z23, (6aR)-8-acryloyl-4-chloro-3-(2-fluoro-6-hydroxyphenyl)-1-((S)-2-methylmorpholino)-6,6a,7,8,9,10-hexahydro-12H-pyrazino[2,1-c]pyrido[3,4-f][1,4]oxazepin-12-one]: under 5.30, 7.14 and 7.30.

One may read the pIC50 as the negative decadic logarithm of the IC50, by convention in mol/L.
